According to patent US11584727B2, “2-thioxothiazolidin-4-one derivatives active as transthyretin ligands and uses thereof” (BSIM Therapeutics, S.A., priority 2014, dated 2023):

What was measured:
albumin (ALB) = molecular target: T1, albumin (ALB) (Homo sapiens, UniProt P02768); assay: Thyroxine (T4) binding competition by gel electrophoresis in plasma, albumin band; conditions: [125I]T4, in presence of compound
T1 construct: from tissue; host or cells: human plasma
Procedure: (§1) Briefly, upon incubation of human plasma in the presence of the test compounds and radio-labeled T4 ([125I]T4), the samples are subjected to native PAGE. After electrophoresis, the gels are dried, subjected to phosphor imaging, and the intensity of the protein bands is then compared. […] The intensity of the bands decreases, as compared to the control samples (absence of compound), if the compound binds to the protein(s) competing with T4.
(§2) FIG. 24 presents the results of these experiments, where the bands in the gel correspond to the major T4 binding plasma proteins. […] The results were analyzed by calculation of the TTR/total (TTR+ALB+TBG) ratio for each sample collected at different time points. The displacement of T4 from TTR is calculated and plotted as the difference between the average of ratios of TTR/total protein for each control sample and the average of the ratios of TTR/total protein. […]
(§3) Five (5) μL of human plasma plus 0.25-0.5 μL of [125I]T4 (specific radioactivity 1250 μCi/m; concentration 320 μCi/mL; Perkin Elmer, Boston, Mass., U.S.A.) plus 5 μL of PBS with glycerol 50% are incubated for 1 hour at room temperature (RT) and the samples are subjected to native PAGE. After electrophoresis, the gels are dried, subjected to phosphor imaging (Typhoon 8600; Molecular Diagnostics, Amersham Biosciences), and analyzed using the ImageQuant program version 5.1. […]

[1] = molecular target: T2, thyroxine-binding globulin (TBG) (Homo sapiens, UniProt P05543); assay: Thyroxine (T4) binding competition by gel electrophoresis in plasma, TBG band; conditions: [125I]T4, in presence of compound
T2 construct: from tissue; host or cells: human plasma
T2 sequence (P05543 21-415): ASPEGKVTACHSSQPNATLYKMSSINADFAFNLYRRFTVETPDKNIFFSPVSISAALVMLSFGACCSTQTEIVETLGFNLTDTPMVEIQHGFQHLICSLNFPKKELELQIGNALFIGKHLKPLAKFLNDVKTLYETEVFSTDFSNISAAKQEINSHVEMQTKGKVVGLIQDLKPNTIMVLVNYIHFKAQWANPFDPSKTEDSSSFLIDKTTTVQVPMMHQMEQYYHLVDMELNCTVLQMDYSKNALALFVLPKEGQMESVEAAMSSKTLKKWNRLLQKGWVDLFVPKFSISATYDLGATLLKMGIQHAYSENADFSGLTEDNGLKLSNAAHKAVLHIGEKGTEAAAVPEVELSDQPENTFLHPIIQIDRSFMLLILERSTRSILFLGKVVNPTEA
Procedure: as §1, §2, §3

[2] = molecular target: Val122Ile transthyretin (V122I-TTR) (Homo sapiens, UniProt P02766, V142I); assay: V122I-TTR amyloid fibril formation assay (turbidimetry, acid-induced); type: biochemical; conditions: pH 4.4, 72 hours; for Fibril Formation (%): V122I-TTR 3.6 μM, 37° C.

T1 sequence (P02768 25-609): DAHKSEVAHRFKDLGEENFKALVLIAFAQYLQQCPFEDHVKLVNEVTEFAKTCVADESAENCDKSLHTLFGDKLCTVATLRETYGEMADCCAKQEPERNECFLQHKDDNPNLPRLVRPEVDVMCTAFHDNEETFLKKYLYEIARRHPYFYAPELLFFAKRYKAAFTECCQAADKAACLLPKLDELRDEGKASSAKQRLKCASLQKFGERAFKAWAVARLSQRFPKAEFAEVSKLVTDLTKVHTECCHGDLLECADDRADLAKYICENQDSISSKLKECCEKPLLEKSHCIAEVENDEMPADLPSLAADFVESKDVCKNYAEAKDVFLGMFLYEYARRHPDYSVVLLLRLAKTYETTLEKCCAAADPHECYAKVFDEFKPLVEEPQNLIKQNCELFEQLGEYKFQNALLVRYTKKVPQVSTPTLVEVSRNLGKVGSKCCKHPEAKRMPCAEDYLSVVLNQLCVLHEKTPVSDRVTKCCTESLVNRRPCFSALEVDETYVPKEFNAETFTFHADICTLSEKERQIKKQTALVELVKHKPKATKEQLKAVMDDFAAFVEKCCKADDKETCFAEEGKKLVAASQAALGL

SMILES	T4 bound to ALB (albumin (ALB)) [%]	T4 bound to TBG [1] [%]	Fibril Formation (%) [2] [%]	IC50 ([2]; V122I-TTR fixed at 3.6 μM, ten compound concentrations) [µM]
COc1cc(/C=C2\SC(=S)N(CC(=O)O)C2=O)cc(Cl)c1O [AT50-A00 (Z), (Z)-3-hydroxycarbonylmethyl-5-(3′-chloro-4′-hydroxy-5′-methoxyphenylmethylidene)-2-thioxothiazolidin-4-one]	31.5	54.3	52	3.73
O=C(O)c1ccc2nc(-c3cc(Cl)cc(Cl)c3)oc2c1 [Tafamidis, reference compound]	32.0	53.6	49	
